Results taken from ChEMBL document CHEMBL1201862, “PubChem BioAssay data set” (2004).
Activity calls are given as the source filed them.

Columns and labels:
[1] = system: Streptococcus sp. 'group A'; assay: Streptococcus pyogenes SK(-)GAS viability under kanamycin – luminescence, BacTiterGlo, confirmation, counter-screen for streptokinase expression inhibitor project, dose response (AID 1900); format: functional, organism-based
[2] = molecular target: T1, Streptokinase A (Streptococcus pyogenes serotype M1, UniProt P10520); assay: viability-normalized secreted streptokinase activity reduction – plasminogen activation absorbance, OD405, dose response (AID 1914); format: functional, Streptococcus pyogenes M1 GAS;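 also: secreted streptokinase activity via plasminogen activation per viability signal from cell pellet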
T1 sequence (P10520 whole entry): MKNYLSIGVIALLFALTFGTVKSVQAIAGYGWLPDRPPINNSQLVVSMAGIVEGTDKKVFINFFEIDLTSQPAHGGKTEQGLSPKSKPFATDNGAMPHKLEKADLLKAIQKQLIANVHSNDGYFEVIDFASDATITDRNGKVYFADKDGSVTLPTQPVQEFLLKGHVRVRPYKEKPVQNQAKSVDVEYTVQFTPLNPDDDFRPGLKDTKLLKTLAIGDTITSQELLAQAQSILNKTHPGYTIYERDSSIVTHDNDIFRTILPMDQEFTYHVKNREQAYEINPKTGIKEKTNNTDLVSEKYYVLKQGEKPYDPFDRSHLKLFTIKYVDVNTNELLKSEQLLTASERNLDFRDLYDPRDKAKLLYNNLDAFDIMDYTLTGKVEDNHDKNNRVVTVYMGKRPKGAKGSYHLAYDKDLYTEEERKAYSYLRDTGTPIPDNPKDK

[3] = molecular target: G-protein coupled receptor 35 (Homo sapiens, UniProt Q9HC97); assay: inhibition of zaprinast-stimulated GPR35 beta-arrestin translocation – imaging, U2OS, beta-arrestin-GFP, zaprinast agonist, primary screen (AID 2058); format: functional;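 also: antagonist potency meaning inhibition of agonist-induced arrestin redistribution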
Sequence of G-protein coupled receptor 35 (Q9HC97 whole entry): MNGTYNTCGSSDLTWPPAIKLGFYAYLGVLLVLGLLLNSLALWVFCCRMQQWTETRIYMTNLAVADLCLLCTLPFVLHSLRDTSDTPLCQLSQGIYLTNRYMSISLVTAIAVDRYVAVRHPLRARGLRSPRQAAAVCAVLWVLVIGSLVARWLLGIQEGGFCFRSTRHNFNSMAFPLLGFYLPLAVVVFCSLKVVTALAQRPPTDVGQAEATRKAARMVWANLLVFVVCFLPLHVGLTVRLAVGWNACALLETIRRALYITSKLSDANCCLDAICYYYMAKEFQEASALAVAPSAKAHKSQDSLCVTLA

[4] = system: Streptococcus; assay: GAS UMAA2166 growth inhibition – luminescence, BacTiterGlo, counter-screen for streptokinase expression inhibitor project, dose response (AID 1915); format: functional, organism-based;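 also: potency for reduction of bacterial viability or growth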
[5] = molecular target: T2, Short transient receptor potential channel 4 (Mus musculus, UniProt Q9QUQ5); assay: potentiation of DAMGO-evoked TRPC4 calcium signal – cell-based, HEK293 TRPC4/mu-opioid, Fluo-4 calcium, EC20 DAMGO, dose response (AID 434941); format: functional
T2 sequence (Q9QUQ5 whole entry): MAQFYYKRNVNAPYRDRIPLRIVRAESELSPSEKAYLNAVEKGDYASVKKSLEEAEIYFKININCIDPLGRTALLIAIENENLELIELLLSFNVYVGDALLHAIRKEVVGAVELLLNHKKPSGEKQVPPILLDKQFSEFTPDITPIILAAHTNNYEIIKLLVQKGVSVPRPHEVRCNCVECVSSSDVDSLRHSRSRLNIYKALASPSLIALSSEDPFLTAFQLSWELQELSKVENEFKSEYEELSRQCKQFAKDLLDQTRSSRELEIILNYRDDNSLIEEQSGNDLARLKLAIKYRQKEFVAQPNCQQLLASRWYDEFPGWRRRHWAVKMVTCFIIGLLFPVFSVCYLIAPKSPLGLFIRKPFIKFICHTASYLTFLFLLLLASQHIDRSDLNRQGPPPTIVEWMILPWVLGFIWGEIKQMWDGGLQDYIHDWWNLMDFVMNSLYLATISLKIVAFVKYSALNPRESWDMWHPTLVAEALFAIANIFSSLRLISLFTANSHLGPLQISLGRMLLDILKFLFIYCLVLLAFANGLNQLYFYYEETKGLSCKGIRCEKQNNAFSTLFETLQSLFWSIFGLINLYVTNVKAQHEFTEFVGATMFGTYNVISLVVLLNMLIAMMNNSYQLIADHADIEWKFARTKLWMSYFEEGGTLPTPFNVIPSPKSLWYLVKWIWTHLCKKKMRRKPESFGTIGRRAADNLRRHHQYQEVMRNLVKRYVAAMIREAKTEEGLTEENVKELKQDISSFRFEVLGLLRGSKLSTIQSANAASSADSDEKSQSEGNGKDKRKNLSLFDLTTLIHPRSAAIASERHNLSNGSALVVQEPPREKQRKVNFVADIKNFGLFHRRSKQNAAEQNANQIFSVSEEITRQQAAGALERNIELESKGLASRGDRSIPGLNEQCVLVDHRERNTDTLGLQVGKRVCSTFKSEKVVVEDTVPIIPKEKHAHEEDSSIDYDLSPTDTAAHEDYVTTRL

[6] = molecular target: T3, Mannose-6-phosphate isomerase (Homo sapiens, UniProt P34949); assay: MPI inhibition at elevated mannose 6-phosphate – biochemical, fluorescence intensity, high mannose 6-phosphate, primary screen (AID 1220)
T3 sequence (P34949 whole entry): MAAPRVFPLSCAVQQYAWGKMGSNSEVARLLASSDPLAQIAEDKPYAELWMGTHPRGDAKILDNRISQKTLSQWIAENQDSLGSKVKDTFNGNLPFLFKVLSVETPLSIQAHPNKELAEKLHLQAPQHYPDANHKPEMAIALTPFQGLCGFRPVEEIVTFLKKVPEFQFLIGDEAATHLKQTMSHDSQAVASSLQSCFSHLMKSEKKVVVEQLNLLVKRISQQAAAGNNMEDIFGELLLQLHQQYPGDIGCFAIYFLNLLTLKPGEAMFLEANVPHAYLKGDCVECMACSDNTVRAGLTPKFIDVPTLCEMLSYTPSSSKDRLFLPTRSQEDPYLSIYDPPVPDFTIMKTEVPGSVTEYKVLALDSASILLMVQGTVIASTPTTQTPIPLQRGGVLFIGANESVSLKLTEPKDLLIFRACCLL

[7] = molecular target: Phosphomannomutase 2 (Homo sapiens, UniProt O15305); assay: Counter screen SAR assay for PMM2 inhibitors via a fluorescence intensity assay. [Related pubchem assays (depositor defined):AID1545, AID1574]
Sequence of Phosphomannomutase 2 (O15305 whole entry): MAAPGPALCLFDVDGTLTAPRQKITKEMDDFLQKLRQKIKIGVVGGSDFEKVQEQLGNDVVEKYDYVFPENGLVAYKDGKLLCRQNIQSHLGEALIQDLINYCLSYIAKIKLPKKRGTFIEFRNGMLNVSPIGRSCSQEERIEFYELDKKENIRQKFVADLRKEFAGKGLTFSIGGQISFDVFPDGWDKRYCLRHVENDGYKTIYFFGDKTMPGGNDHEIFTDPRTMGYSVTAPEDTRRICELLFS

[8] = molecular target: Glucose-6-phosphate 1-dehydrogenase (Homo sapiens, UniProt P11413); assay: inhibition of Homo sapiens G6PD, dose series – biochemical, fluorescence, selectivity assay for P. falciparum G6PD inhibitor project, dose response (AID 504792); format: functional
Sequence of Glucose-6-phosphate 1-dehydrogenase (P11413 whole entry): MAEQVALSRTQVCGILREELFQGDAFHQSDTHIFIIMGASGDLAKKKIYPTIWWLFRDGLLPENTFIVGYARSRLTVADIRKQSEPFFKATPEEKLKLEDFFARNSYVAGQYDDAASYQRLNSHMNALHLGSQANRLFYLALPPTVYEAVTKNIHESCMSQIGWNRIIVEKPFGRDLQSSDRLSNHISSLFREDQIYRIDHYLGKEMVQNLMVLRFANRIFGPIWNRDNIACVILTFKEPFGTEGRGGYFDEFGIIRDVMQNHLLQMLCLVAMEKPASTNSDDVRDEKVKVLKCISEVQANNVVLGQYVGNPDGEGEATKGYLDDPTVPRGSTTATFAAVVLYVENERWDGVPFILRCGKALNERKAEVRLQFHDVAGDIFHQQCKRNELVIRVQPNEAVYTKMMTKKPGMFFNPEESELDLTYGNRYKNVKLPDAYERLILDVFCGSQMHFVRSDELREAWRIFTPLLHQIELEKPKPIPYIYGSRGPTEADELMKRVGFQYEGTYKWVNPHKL

[9] = molecular target: Large T antigen (Simian virus 40, UniProt P03070); format: functional, Betapolyomavirus macacae;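 also: Confirmatory-stage PubChem screen for compounds that inhibit SV40 T antigen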
Sequence of Large T antigen (P03070 whole entry): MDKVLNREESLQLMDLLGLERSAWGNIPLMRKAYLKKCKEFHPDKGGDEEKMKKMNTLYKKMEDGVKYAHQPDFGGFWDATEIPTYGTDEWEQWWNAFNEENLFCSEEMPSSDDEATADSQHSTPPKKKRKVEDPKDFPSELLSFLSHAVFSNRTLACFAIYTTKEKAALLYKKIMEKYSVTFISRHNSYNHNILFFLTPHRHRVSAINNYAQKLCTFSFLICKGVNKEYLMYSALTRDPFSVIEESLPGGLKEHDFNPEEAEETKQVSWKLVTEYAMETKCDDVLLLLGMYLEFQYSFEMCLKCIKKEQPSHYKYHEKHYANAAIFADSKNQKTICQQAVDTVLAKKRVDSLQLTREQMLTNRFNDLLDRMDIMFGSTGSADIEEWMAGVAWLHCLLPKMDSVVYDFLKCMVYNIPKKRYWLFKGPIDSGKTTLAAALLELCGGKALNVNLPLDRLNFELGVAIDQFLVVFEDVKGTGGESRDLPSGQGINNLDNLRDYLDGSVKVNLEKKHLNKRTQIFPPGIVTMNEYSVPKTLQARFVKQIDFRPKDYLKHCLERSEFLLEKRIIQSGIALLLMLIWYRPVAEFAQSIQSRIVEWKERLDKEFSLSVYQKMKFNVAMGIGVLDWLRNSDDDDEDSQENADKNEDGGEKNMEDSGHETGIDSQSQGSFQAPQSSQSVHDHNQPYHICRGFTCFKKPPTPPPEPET

[10] = molecular target: Eukaryotic translation initiation factor 4E (Mus musculus, UniProt P63073); assay: blockers of eIF4G binding by eIF4E – biochemical, TR-FRET, dose response (AID 855); format: functional;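 also: potency for disrupting eIF4E binding to eIF4GI seen as loss of FRET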
Sequence of Eukaryotic translation initiation factor 4E (P63073 whole entry): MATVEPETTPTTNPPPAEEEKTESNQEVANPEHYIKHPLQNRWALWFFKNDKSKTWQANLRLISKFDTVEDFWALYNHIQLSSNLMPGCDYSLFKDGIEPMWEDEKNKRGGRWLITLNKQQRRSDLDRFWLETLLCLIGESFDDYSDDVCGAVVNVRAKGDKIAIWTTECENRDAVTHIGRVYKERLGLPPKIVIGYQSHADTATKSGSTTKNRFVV

[11] = molecular target: T3, Mannose-6-phosphate isomerase; assay: phosphomannose isomerase inhibition – biochemical, fluorescence intensity, confirmation (AID 1535)
[12] = system: Vero; assay: cells; format: functional; conditions: Chlorocebus sabaeus
[13] = molecular target: T4, Polyadenylate-binding protein 1 (Homo sapiens, UniProt P11940); assay: PABP inhibition in translation initiation, SAR follow-up (AID 435018); format: functional
T4 sequence (P11940 whole entry): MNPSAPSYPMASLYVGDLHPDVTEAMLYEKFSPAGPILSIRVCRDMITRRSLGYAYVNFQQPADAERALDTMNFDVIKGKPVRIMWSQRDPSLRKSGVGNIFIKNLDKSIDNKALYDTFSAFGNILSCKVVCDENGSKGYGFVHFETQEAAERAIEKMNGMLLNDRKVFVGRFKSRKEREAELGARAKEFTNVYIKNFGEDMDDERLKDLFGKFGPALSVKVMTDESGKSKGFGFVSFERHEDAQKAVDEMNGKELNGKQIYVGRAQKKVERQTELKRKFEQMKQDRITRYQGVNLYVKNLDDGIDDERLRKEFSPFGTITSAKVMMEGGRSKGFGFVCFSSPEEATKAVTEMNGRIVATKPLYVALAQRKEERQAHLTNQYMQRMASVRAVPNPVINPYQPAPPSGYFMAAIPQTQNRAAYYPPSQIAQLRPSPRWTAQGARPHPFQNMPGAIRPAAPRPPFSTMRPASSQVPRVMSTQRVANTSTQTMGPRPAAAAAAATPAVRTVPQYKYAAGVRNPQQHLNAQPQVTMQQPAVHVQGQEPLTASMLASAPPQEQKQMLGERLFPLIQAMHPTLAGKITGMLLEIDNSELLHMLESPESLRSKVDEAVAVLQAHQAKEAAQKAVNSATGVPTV

[14] = molecular target: T5, Eukaryotic translation initiation factor 4H (Homo sapiens, UniProt Q15056); assay: inhibitors of translation initiation factor eIF4H – SAR follow-up (AID 435011); format: functional
[15] = molecular target: T4, Polyadenylate-binding protein 1; assay: blockers of PABP interaction with poly(A) – biochemical, fluorescence polarization, […] (AID 2014)
[16] = molecular target: T5, Eukaryotic translation initiation factor 4H; assay: eIF4H binding inhibition – biochemical, uHTS, fluorescence polarization, translation initiation inhibitor project, primary screen (AID 2012)
[17] = molecular target: Protein Rev (Human immunodeficiency virus type 1 group M subtype B (isolate HXB2)(HIV-1), UniProt P04618); assay: blockers of HIV Rev/RRE RNA complex – biochemical, fluorescence polarization, HIV-1, dose response (AID 434976); set-up: species or system Human immunodeficiency virus 1
Sequence of Protein Rev (P04618 whole entry): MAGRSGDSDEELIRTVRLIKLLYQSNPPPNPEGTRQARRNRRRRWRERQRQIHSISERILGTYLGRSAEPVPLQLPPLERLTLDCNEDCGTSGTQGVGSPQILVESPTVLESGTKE

[18] = molecular target: Female germline-specific tumor suppressor gld-1 (Caenorhabditis elegans, UniProt Q17339); assay: blockers of GLD-1/TGE RNA complex formation – biochemical, fluorescence polarization, C. elegans, dose response (AID 2802);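 also: fluorescence polarization of labeled TGE RNA bound by purified gld-1 protein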
Sequence of Female germline-specific tumor suppressor gld-1 (Q17339 whole entry): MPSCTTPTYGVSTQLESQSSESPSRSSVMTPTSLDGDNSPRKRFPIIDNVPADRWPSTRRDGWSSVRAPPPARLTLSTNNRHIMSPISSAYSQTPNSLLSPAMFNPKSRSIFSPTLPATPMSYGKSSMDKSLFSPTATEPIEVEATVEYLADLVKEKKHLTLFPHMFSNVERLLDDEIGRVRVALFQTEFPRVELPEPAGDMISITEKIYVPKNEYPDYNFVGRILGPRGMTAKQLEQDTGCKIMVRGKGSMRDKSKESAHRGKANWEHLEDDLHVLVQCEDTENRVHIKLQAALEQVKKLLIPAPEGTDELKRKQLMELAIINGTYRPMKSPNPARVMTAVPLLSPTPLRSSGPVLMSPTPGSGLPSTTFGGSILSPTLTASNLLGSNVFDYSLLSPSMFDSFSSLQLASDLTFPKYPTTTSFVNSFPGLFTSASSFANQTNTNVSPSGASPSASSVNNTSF

[19] = molecular target: G-protein coupled receptor 55 (Homo sapiens, UniProt Q9Y2T6); assay: selective activators of receptor GPR55 – imaging, U2OS cells, beta-arrestin-GFP redistribution, primary screen (AID 1961); format: functional
Sequence of G-protein coupled receptor 55 (Q9Y2T6 whole entry): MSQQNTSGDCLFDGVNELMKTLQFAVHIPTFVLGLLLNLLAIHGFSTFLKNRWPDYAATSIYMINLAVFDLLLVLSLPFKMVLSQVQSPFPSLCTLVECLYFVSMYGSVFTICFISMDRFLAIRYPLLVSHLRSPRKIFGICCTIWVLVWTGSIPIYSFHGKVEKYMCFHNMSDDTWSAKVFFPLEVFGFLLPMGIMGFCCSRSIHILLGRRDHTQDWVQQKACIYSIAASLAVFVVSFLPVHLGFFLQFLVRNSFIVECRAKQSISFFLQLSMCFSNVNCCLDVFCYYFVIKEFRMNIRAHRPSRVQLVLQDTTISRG

CCOc1ccc(N(C)c2ccc(/C=C3/SC(=S)NC3=O)cc2)cc1
EC50 [1]: 5.43 µM (active)
EC50 [2]: > 150 µM (not active)
IC50 [3]: 0.701 µM (active)
EC50 [4]: 20.7 µM (active)

CCSC1=N/C(=C\c2ccc(OC)cc2)C(=O)N1
EC50 [5]: 3.35 µM (active)

O=c1c2ccccc2sn1-c1nccs1
IC50 [6]: 42.5 µM (active)
IC50 [7]: > 100 µM (inactive)
IC50 [8]: 11.3 µM (active)
IC50 [9]: 12.9 µM (active)
IC50 [10]: 13.5 µM (active)
IC50 [11]: 2.65 µM (active)
CC50 [12]: > 25 µM (active)

O=C(Nc1cccc2ncccc12)c1ccc(Cl)cc1
IC50 [13]: 2.79 µM (active)
IC50 [14]: 6.11 µM (active)
IC50 [15]: 9.09 µM (active)
IC50 [16]: > 100 µM (inactive)

Cc1ccc(S(=O)(=O)Nc2cc3c(C(=O)Nc4ccccc4)c(C)oc3c3ccccc23)cc1
IC50 [17]: > 75.4 µM (not active)
IC50 [18]: 0.725 µM (active)

Cc1c(C(=O)N(C)C2CCCCC2)sc2ncnc(N3CCN(c4ccccc4)CC3)c12
EC50 [19]: 5.84 µM (active)
